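Results reflect a 48-hour exposure of cells in 96-well plates to compound at five concentrations. GI50: concentration for 50% inhibition of growth.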 Activity calls are given as the source filed them. Cut-off read from the data, not from the text of the source: active = GI50 up to about 1.1 µM and inactive = higher.
Columns and labels:
Experiment in all cases: NCI tumour cell line growth inhibition, 48 h
ACHN = system: ACHN
BT-549 = system: BT-549
COLO 205 = system: COLO 205
HL-60 = system: HL-60
HOP-62 = system: HOP-62
HT-29 = system: HT-29
K562 = system: K562
MDA-MB-435 = system: MDA-MB-435
MDA-N = system: MDA-N
Malme-3M = system: Malme-3M
NCI/ADR-RES = system: NCI/ADR-RES
OVCAR-3 = system: OVCAR-3
PC-3 = system: PC-3
SF-268 = system: SF-268
SF-539 = system: SF-539
SK-MEL-28 = system: SK-MEL-28
SN12C = system: SN12C
T47D = system: T47D
U-251 = system: U-251
UO-31 = system: UO-31

SMILES | GI50 (ACHN) | GI50 (BT-549) | GI50 (COLO 205) | GI50 (HL-60) | GI50 (HOP-62) | GI50 (HT-29) | GI50 (K562) | GI50 (MDA-MB-435) | GI50 (MDA-N) | GI50 (Malme-3M) | GI50 (NCI/ADR-RES) | GI50 (OVCAR-3) | GI50 (PC-3) | GI50 (SF-268) | GI50 (SF-539) | GI50 (SK-MEL-28) | GI50 (SN12C) | GI50 (T47D) | GI50 (U-251) | GI50 (UO-31)
Cc1c2ccccc2c(C2C3C(=O)N(c4cccc5ccccc45)C(=O)C3ON2Cc2ccc(CC(N)=O)cc2)c2ccccc12 (centres undefined) | 18.5 µM (inactive) | 30.2 µM (inactive) | 7.78 µM (inactive) | 16.1 µM (inactive) | 23 µM (inactive) | 10.2 µM (inactive) | 15.7 µM (inactive) | 17.9 µM (inactive) | 11.5 µM (inactive) | 28.6 µM (inactive) | 39.7 µM (inactive) | 18.8 µM (inactive) | 17.4 µM (inactive) | 23.6 µM (inactive) | 12 µM (inactive) | > 50 µM (inactive) | 15.3 µM (inactive) | 15 µM (inactive) | 19.8 µM (inactive) | 24.7 µM (inactive)
O=C(Nc1ccccc1)c1cc(S(=O)(=O)N2CCNC2=O)c(S)cc1Cl | > 100 µM (inactive) | > 100 µM (inactive) | > 100 µM (inactive) | > 100 µM (inactive) | > 100 µM (inactive) | > 100 µM (inactive) | > 100 µM (inactive) | > 100 µM (inactive) | > 100 µM (inactive) |  | > 100 µM (inactive) | > 100 µM (inactive) | > 100 µM (inactive) | > 100 µM (inactive) | > 100 µM (inactive) | > 100 µM (inactive) | > 100 µM (inactive) | > 100 µM (inactive) | > 100 µM (inactive) | > 100 µM (inactive)
CC[C@H](C)c1occ2c(O)c(C(=O)O)c(=O)cc-2c1C | 26.7 µM (inactive) | 25.9 µM (inactive) | 19.3 µM (inactive) | 12.7 µM (inactive) | 24.9 µM (inactive) | 25.7 µM (inactive) | 29.1 µM (inactive) | 22.1 µM (inactive) | 24 µM (inactive) | 17.5 µM (inactive) | 20.3 µM (inactive) | 19.5 µM (inactive) | 33.5 µM (inactive) | 33.7 µM (inactive) | 20.7 µM (inactive) |  | 22.5 µM (inactive) | 20.7 µM (inactive) | 28.5 µM (inactive) | 
COc1ccc(CN(Cc2ccc(OC)cc2)C(=O)CC2(O)C=CCC2)cc1 (centres undefined) | > 100 µM (inactive) | > 100 µM (inactive) | 40 µM (inactive) | 34.8 µM (inactive) | > 100 µM (inactive) | 66.7 µM (inactive) | 34 µM (inactive) | 71.4 µM (inactive) | 72.9 µM (inactive) | > 100 µM (inactive) | 43.1 µM (inactive) | 98.2 µM (inactive) | 28 µM (inactive) |  | > 100 µM (inactive) | > 100 µM (inactive) | > 100 µM (inactive) | 39.4 µM (inactive) | 90.8 µM (inactive) | 44.9 µM (inactive)
CCCc1nnc2sc(COc3cc(Cl)c(OCc4nn5c(CCC)nnc5s4)cc3Cl)nn12 | 25.4 µM (inactive) | 29.2 µM (inactive) | 50.5 µM (inactive) | 25.6 µM (inactive) | 38.4 µM (inactive) | 53 µM (inactive) | 0.596 µM (active) | 35.3 µM (inactive) | 37.6 µM (inactive) | 25.9 µM (inactive) | 5.9 µM (inactive) | 24.8 µM (inactive) | > 100 µM (inactive) | 21.7 µM (inactive) | 47.8 µM (inactive) | 5.66 µM (inactive) | 57 µM (inactive) | 15.2 µM (inactive) | 37.2 µM (inactive) | 
Cc1nc(=O)[nH]c(NCCNCCO)c1C(=O)Nc1cccc2cc3ccccc3cc12 | > 100 µM (inactive) | > 100 µM (inactive) | > 100 µM (inactive) | > 100 µM (inactive) | > 100 µM (inactive) | > 100 µM (inactive) | > 100 µM (inactive) | > 100 µM (inactive) | > 100 µM (inactive) | > 100 µM (inactive) | > 100 µM (inactive) | > 100 µM (inactive) | > 100 µM (inactive) | > 100 µM (inactive) | > 100 µM (inactive) | > 100 µM (inactive) | > 100 µM (inactive) | > 100 µM (inactive) | > 100 µM (inactive) | 
CCOC(=O)c1nc2cc(C(F)(F)F)ccc2nc1Oc1ccc(C(=O)OC)cc1 | > 100 µM (inactive) | > 100 µM (inactive) | > 100 µM (inactive) | 35.1 µM (inactive) |  |  | > 100 µM (inactive) | > 100 µM (inactive) | > 100 µM (inactive) | > 100 µM (inactive) | > 100 µM (inactive) | > 100 µM (inactive) | > 100 µM (inactive) | > 100 µM (inactive) | > 100 µM (inactive) | > 100 µM (inactive) | > 100 µM (inactive) | > 100 µM (inactive) | > 100 µM (inactive) | > 100 µM (inactive)
COC(=O)c1nn2ccc3ccccc3c2c1C(=O)OC | > 100 µM (inactive) | 63.5 µM (inactive) | > 100 µM (inactive) | 21.3 µM (inactive) | 50.8 µM (inactive) | 48 µM (inactive) | 58.7 µM (inactive) | 76.7 µM (inactive) | 34.8 µM (inactive) | > 100 µM (inactive) | 62.7 µM (inactive) |  | 47.8 µM (inactive) | > 100 µM (inactive) | > 100 µM (inactive) | > 100 µM (inactive) | 58.1 µM (inactive) | > 100 µM (inactive) | > 100 µM (inactive) | 32.2 µM (inactive)
COc1cccc(-c2cc(=O)c3ccc(C)nc3[nH]2)c1 | 0.0538 µM (active) | 0.299 µM (active) | 0.0277 µM (active) | 0.0212 µM (active) | 0.0904 µM (active) | 0.0331 µM (active) | 0.0232 µM (active) | < 0.01 µM (active) | 0.0115 µM (active) | 0.0403 µM (active) | 0.0594 µM (active) | 0.0219 µM (active) | 0.0361 µM (active) | 0.0671 µM (active) | 0.0388 µM (active) |  | 0.122 µM (active) | 57.9 µM (inactive) | 0.0508 µM (active) | 0.0752 µM (active)
COC(=O)C1OC(O[C@H]2CC[C@]3(C)[C@H]4CC=C5[C@@H]6CC(C)(C)CC[C@]6(C(=O)OC6OCC(O)C(O)C6OC6OC(C)C(OC7OCC(OC8OCC(O)C(O)C8O)C(O)C7O)C(O)C6O)[C@H](O)C[C@@]5(C)[C@]4(C)CC[C@H]3C2(C)C)C(O)C(O)C1O (some centres undefined) | 3.54 µM (inactive) | 2.04 µM (inactive) | 1.66 µM (inactive) | 3.21 µM (inactive) | 5.33 µM (inactive) | 2.71 µM (inactive) |  | 1.95 µM (inactive) | 1.78 µM (inactive) | 4.16 µM (inactive) | 6.41 µM (inactive) | 6.82 µM (inactive) | 4.19 µM (inactive) | 4.72 µM (inactive) | 11.4 µM (inactive) | 2.08 µM (inactive) | 1.8 µM (inactive) | 1.43 µM (inactive) | 5.83 µM (inactive) | 1.75 µM (inactive)
NC(=O)C(Nc1ccc(Cl)cc1)c1cc2cc(Br)ccc2nc1Cl (centres undefined) | > 50 µM (inactive) | > 50 µM (inactive) | > 50 µM (inactive) | > 50 µM (inactive) | > 50 µM (inactive) | > 50 µM (inactive) | 20.5 µM (inactive) | 32.7 µM (inactive) | 43.7 µM (inactive) | > 50 µM (inactive) | > 50 µM (inactive) | > 50 µM (inactive) | > 50 µM (inactive) | > 50 µM (inactive) | 18.5 µM (inactive) | 48 µM (inactive) | > 50 µM (inactive) | 37.2 µM (inactive) |  | > 50 µM (inactive)
C=C(C)C1Cc2cc(C(C)=O)ccc2O1 (centres undefined) | > 100 µM (inactive) | > 100 µM (inactive) | > 100 µM (inactive) | > 100 µM (inactive) |  | > 100 µM (inactive) | > 100 µM (inactive) | > 100 µM (inactive) | > 100 µM (inactive) | > 100 µM (inactive) | > 100 µM (inactive) | > 100 µM (inactive) | > 100 µM (inactive) | > 100 µM (inactive) | > 100 µM (inactive) | > 100 µM (inactive) | > 100 µM (inactive) | > 100 µM (inactive) | > 100 µM (inactive) | > 100 µM (inactive)
Cc1cc(=O)oc2c(CN3CCCCC3)c(O)ccc12 | > 100 µM (inactive) | > 100 µM (inactive) | > 100 µM (inactive) | > 100 µM (inactive) | > 100 µM (inactive) | > 100 µM (inactive) | > 100 µM (inactive) | > 100 µM (inactive) | > 100 µM (inactive) | > 100 µM (inactive) | > 100 µM (inactive) | > 100 µM (inactive) | > 100 µM (inactive) | > 100 µM (inactive) | > 100 µM (inactive) | > 100 µM (inactive) | > 100 µM (inactive) | > 100 µM (inactive) | > 100 µM (inactive) | 
CC(=O)[C@@H](C)C(=O)N1C(=O)OC[C@@]12[C@@H]1CC[C@@H](C1)C2(C)C | > 100 µM (inactive) | > 100 µM (inactive) | > 100 µM (inactive) | > 100 µM (inactive) | > 100 µM (inactive) | > 100 µM (inactive) | > 100 µM (inactive) | > 100 µM (inactive) | > 100 µM (inactive) | > 100 µM (inactive) | > 100 µM (inactive) |  | > 100 µM (inactive) |  | > 100 µM (inactive) | > 100 µM (inactive) | > 100 µM (inactive) | > 100 µM (inactive) | > 100 µM (inactive) | > 100 µM (inactive)
